Assay results published in patent US20140179681A1, “METHODS AND COMPOSITIONS OF TARGETED DRUG DEVELOPMENT” (priority 2010, published 2014).
Read-outs that look alike come from different tables or passages of the source.

System: MDBK line
Assay: MTT Cell Proliferation Assay, MDBK cells
Type: cell-based, bovine
Details: for IC50: Bos taurus, MDBK, Table 11, second of x/y(ratio): MDBK
How it was run: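 Each concentration ran in quadruplicate across duplicate plates, with compounds serially diluted in DMSO and delivered at 0.5% DMSO in 0.5% FBS medium for 3 days.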

With `CCc1cc2c(CN3CCN(Cc4ccc5c(c4)OCO5)CC3)cc(=O)oc2cc1O` [AD4-1734] the IC50 (unit inferred, read-out: MTT Follow-up (second value)) was 40.2 µM, the IC50 (unit not printed (doses in μM), read-out: MTT Screen (second value)) was 42.5 µM and the “activity in MDBK cells” value (standard at 23.5 μM final concentration) was 0. The “activity in MDBK cells” value (standard at 31.125 μM final concentration) was “less than 50%”.
